Results as given in ChEMBL document CHEMBL4651402, “Screening of ~5500 FDA-approved drugs and clinical candidates for anti-SARS-CoV-2 activity” (2021).

Tested on: SARS-CoV-2
Assay: microbe, parasite or virus in culture
Conditions: Severe acute respiratory syndrome coronavirus 2, Vero C1008, 48 h

Row | SMILES | IC50 | IC50 (read-out: pIC50 (converted))
1 | CN1C(CSCC(F)(F)F)Nc2cc(Cl)c(S(N)(=O)=O)cc2S1(=O)=O (stereo not drawn) [POLYTHIAZIDE] | > 20 µM | > 20 µM
2 | CSCC[C@H](N)C(=O)N[C@@]1(C(=O)O)CS(=O)(=O)[C@H]2[C@H](C(=O)O)[C@H]21 [POMAGLUMETAD METHIONIL ANHYDROUS] | > 20 µM | > 20 µM
3 | Nc1cccc2c1C(=O)N(C1CCC(=O)NC1=O)C2=O (stereo not drawn) [POMALIDOMIDE] | > 20 µM | > 20 µM
4 | O=C(O)Cc1nn(Cc2ccc(Br)cc2F)c(=O)c2ccccc12 [PONALRESTAT] | > 20 µM | > 20 µM
5 | CCC/N=C1\S/C(=C\c2ccc(OC[C@H](O)CO)c(Cl)c2)C(=O)N1c1ccccc1C [PONESIMOD] | > 20 µM | > 20 µM
6 | C=CC(=O)N1CCC(Oc2cc3c(Nc4ccc(Cl)c(Cl)c4F)ncnc3cc2OC)CC1 [POZIOTINIB] | > 20 µM | > 20 µM
7 | CCCCc1nc2cc(/C=C/C(=O)NO)ccc2n1CCN(CC)CC [PRACINOSTAT] | > 20 µM | > 20 µM
8 | CC(=O)Nc1ccc(OCC(O)CNC(C)C)cc1 (stereo not drawn) [PRACTOLOL] | > 20 µM | > 20 µM
9 | C[n+]1ccccc1C=NO [PRALIDOXIME] | > 20 µM | > 20 µM
10 | CCCN[C@H]1CCc2nc(N)sc2C1 [PRAMIPEXOLE] | > 20 µM | > 20 µM
11 | CC(C)NC1CCC(c2ccccc2)(c2ccccc2)CC1 [PRAMIVERINE] | > 20 µM | > 20 µM
12 | CCCCOc1ccc(OCCCN2CCOCC2)cc1 [PRAMOXINE] | > 20 µM | > 20 µM
13 | CC(C(=O)O)c1ccc2c(c1)Cc1cccnc1O2 (stereo not drawn) [PRANOPROFEN] | > 20 µM | > 20 µM
14 | COc1ccc(C(=O)c2c(C)n(CCN3CCOCC3)c3ccccc23)cc1 [PRAVADOLINE] | > 20 µM | > 20 µM
15 | CC[C@H](C)C(=O)O[C@H]1C[C@H](O)C=C2C=C[C@H](C)[C@H](CC[C@@H](O)C[C@@H](O)CC(=O)O)[C@H]21 [PRAVASTATIN] | > 20 µM | > 20 µM
16 | O=C(C1CCCCC1)N1CC(=O)N2CCc3ccccc3C2C1 (stereo not drawn) [PRAZIQUANTEL] | > 50.1 µM | > 50.1 µM
17 | COc1cc2nc(N3CCN(C(=O)c4ccco4)CC3)nc(N)c2cc1OC [PRAZOSIN] | > 20 µM | > 20 µM
18 | CCCN1CCC[C@@H](c2cccc(O)c2)C1 [PRECLAMOL] | > 20 µM | > 20 µM
19 | CCOC(=O)O[C@]1(C(=O)COC(=O)CC)CC[C@H]2[C@@H]3CCC4=CC(=O)C=C[C@]4(C)[C@H]3[C@@H](O)C[C@@]21C [PREDNICARBATE] | > 20 µM | > 20 µM
20 | C[C@]12C=CC(=O)C=C1CC[C@@H]1[C@@H]2[C@@H](O)C[C@@]2(C)[C@H]1CC[C@]2(O)C(=O)CO [PREDNISOLONE] | > 20 µM | > 20 µM

Row | SMILES | IC50 | IC50 (read-out: pIC50 (converted))
21 | CC(=O)[C@H]1CC[C@H]2[C@@H]3CC=C4C[C@@H](O)CC[C@]4(C)[C@H]3CC[C@]12C [PREGNENOLONE] | > 20 µM | > 20 µM
22 | Cc1c2c(cn1C)NC(=O)CN=C2c1ccccc1 [PREMAZEPAM] | > 20 µM | > 20 µM
23 | CC(C)NC[C@H](O)COc1ccc(O)cc1 [PRENALTEROL] | > 20 µM | > 20 µM
24 | c1ccc(C(Cc2noc(CCN3CCCCC3)n2)c2ccccc2)cc1 [PRENOXDIAZINE] | > 20 µM | > 20 µM
25 | Cc1cn2nc([C@@H]3CCCCN3C(=O)c3cc(Cl)ccc3NS(C)(=O)=O)cc2nc1N1CC[C@H](N)C1 [PRESATOVIR] | > 20 µM | > 20 µM
26 | CCN1CCC(=C(c2ccccc2)c2ccccc2)C1 [PRIDEFINE] | > 20 µM | > 20 µM
27 | OC(CCN1CCCCC1)(c1ccccc1)c1ccccc1 [PRIDINOL] | > 20 µM | > 20 µM
28 | CCCN1CCC(c2cccc(S(C)(=O)=O)c2)CC1 [PRIDOPIDINE] | > 20 µM | > 20 µM
29 | CC(C)(C)c1cc(C(=O)c2cccs2)cc(C(C)(C)C)c1O [PRIFELONE] | > 20 µM | > 20 µM
30 | CCCNC(C)C(=O)Nc1ccccc1C (stereo not drawn) [PRILOCAINE] | > 20 µM | > 20 µM
31 | COc1cc(NC(C)CCCN)c2ncccc2c1 (stereo not drawn) [PRIMAQUINE] | > 20 µM | > 20 µM
32 | Cc1ccccc1OCC(O)CNCCn1cc(C)c(=O)[nH]c1=O (stereo not drawn) [PRIMIDOLOL] | > 20 µM | > 20 µM
33 | CCC1(c2ccccc2)C(=O)NCNC1=O [PRIMIDONE] | > 20 µM | > 20 µM
34 | CN1Cc2cc(C3=NNC(=O)CC3)ccc2NC1=O [PRINOXODAN] | > 20 µM | > 20 µM
35 | CCCN(CCC)S(=O)(=O)c1ccc(C(=O)O)cc1 [PROBENECID] | > 20 µM | > 20 µM
36 | CCCc1c2oc(C(=O)O)cc(=O)c2cc2c(=O)cc(C(=O)O)oc12 [PROBICROMIL] | > 20 µM | > 20 µM
37 | CC(C)(Sc1cc(C(C)(C)C)c(O)c(C(C)(C)C)c1)Sc1cc(C(C)(C)C)c(O)c(C(C)(C)C)c1 [PROBUCOL] | > 20 µM | > 20 µM
38 | CCN(CC)CCNC(=O)c1ccc(N)cc1 [PROCAINAMIDE] | > 20 µM | > 20 µM
39 | CCN(CC)CCOC(=O)c1ccc(N)cc1 [PROCAINE] | > 20 µM | > 20 µM
